From US20200317660A1, “Quinazolinone Compound and Application Thereof” (LUOXIN PHARMACEUTICAL (SHANGHAI) CO., LTD., priority 2017, published 2020)

Experiments:
PI3Kδ = target: T1, PI3Kδ (Homo sapiens, UniProt O00329); test: In vitro test of enzyme activity (ADP-Glo lipokinase), PI3K delta; format: biochemical; conditions: 40 μM ATP, 50 μM PIP2:3PS, 120 min
T1 construct: purchased Millipore 14-604-K
Protocol: (§1) 1. In Vitro Test of Enzyme Activity
(§2) The lipokinase reaction was carried out under the conditions of a suitable substrate and ATP, followed by two steps to detect the kinase activity with the ADP-Glo™ kit. The first step was terminating the kinase reaction, wherein the remaining ATP was completely removed and only ADP was left; the second step was adding kinase detection reagents to convert ADP to ATP, accompanied by luciferin/luciferase reaction. Finally, the output value of fluorescence value was converted into kinase activity.
(§3) Experimental materials and equipments:
(§4) 2. Kit: ADP-Glo™ Lipokinase and PIP2:3PS Kit (Promega # V1792)
(§5) The kit contains: 1 mM PIP2:3PS, 10× lipid dilution buffer, 1 M magnesium chloride, 10 mM ATP, 10 mM ADP, ADP-Glo reagent, detection buffer and detection substrate.
(§6) 3. Reaction plate: OptiPlate-384, white and transparent (PerkinElmer #6007299).
(§7) 1. 10× reaction buffer: 500 mM HEPES, pH 7.5, 500 mM NaCl, 9 mM MgCl2; BSA: 10% stock solution, homemade.
(§8) 2. Final test system conditions: 1× reaction system: 50 mM HEPES, 50 mM NaCl, 3 mM MgCl2, 0.01% BSA (freshly prepared on the day of the experiment), 1% DMSO (v/v)+/−compound
(§9) 3. Reaction system: 3 μL mixture of the enzyme and the substrate (1:1)+2 μL ATP/MgCl2 mixture+5 μL ADP-Glo reagent+10 μL detection reagent.
(§10) The detailed experimental procedures are as follows:
(§11) 1. Compound dilution: 50 nL 100×compound/DMSO was transferred to the test well plate with Echo. • For PI3Kα, the compound was diluted three-fold from the highest concentration of 0.111 mM for a total of 10 concentrations. • For PI3Kβ/PI3Kδ/PI3Kγ, the compound was three-fold diluted from the highest concentration of 1.11 mM for a total of 10 concentrations.
(§12) (1) The compound to be tested was prepared and 50 nL of 100 plus compound solution or DMSO was added to the corresponding well plate.
(§13) (2) 3.33 plate reaction buffer was prepared.
(§14) (3) 3.33 solution PIP2:3PS was prepared, PIP2:3PS was thawed for at least 1 minute before use.
(§15) (4) 2.5 mM containing 5.25 mM MgCl2 was prepared.
(§16) (5) 3.33 PI3Kα/PI3Kβ/PI3Kδ/PI3Kγ solution was prepared.
(§17) (6) The lipokinase solution and the PIP2:3PS solution were mixed in a volume ratio of 1:1.
(§18) (7) 3.33: lipokinase buffer and PIP2:3PS solution were mixed in a volume ratio of 1:1.
(§19) (8) 3 μL of buffer solution and PIP2:3PS were added to the first and the second columns of the well plate.
(§20) (9) 3 μL of the mixed solution of the enzyme and PIP2:3PS was added to the wells except the first and the second columns, centrifuged for 10 seconds (1000 rpm) and incubated at 23° C. for 20 minutes.
(§21) (10) 2 μL […] was added and well was shaken.
(§22) (11) The well plate was covered and shaken for about 30 s, then the well plate was incubated at 23° C. for 2 hours.
(§23) (12) 5 μL of ADP-Glo reagent containing 10 mM MgCl2 was added.
(§24) (13) The well plate was centrifuged at 1000 rpm for 10 seconds, and the well plate was then covered, shaken for about 30 seconds, and incubated at 23° C. for 60 minutes.
(§25) (14) 10 μL kinase detection reagent was added.
(§26) (15) The well plate was centrifuged at 1000 rpm for 10 seconds, and then incubated at 23° C. for 60 minutes.
(§27) (16) The fluorescence value was measured on the Envision instrument.

PI3Kγ = target: T2, PI3Kγ (Homo sapiens, UniProt P48736); test: In vitro test of enzyme activity (ADP-Glo lipokinase), PI3K gamma; format: biochemical; conditions: 25 μM ATP, 50 μM PIP2:3PS, 120 min
T2 construct: purchased Millipore 14-558-K
T2 sequence (P48736 whole entry): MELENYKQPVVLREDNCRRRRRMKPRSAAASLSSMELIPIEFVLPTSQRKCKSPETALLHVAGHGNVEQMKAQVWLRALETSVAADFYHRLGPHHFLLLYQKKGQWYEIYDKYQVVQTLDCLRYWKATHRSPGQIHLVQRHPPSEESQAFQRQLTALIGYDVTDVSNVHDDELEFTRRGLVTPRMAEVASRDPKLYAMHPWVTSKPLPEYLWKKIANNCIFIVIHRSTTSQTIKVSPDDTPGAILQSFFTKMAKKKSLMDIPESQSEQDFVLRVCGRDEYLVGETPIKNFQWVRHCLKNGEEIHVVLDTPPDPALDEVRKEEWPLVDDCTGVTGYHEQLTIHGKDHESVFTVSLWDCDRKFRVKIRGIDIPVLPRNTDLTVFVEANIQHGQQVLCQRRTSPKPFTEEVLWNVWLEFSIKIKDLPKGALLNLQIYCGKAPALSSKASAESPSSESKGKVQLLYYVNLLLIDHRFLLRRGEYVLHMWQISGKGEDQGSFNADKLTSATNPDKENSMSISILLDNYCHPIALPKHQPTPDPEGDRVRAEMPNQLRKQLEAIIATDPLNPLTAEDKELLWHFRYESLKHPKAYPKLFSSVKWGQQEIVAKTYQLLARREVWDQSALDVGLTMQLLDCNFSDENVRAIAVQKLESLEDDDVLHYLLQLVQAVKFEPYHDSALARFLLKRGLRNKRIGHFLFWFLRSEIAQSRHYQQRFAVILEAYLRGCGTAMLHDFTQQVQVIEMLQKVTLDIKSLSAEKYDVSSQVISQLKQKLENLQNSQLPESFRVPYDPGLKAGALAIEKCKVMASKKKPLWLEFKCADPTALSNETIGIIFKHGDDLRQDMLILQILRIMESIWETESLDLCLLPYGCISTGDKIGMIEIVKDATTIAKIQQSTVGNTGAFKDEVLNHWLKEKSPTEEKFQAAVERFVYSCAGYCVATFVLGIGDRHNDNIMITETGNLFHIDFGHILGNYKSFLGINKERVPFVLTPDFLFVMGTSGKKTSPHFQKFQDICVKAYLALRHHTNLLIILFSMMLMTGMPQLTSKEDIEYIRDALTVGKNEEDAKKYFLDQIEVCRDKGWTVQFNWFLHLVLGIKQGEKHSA
Protocol: as §1, §2, §3, §4, §5, §6, §7, §8, §9, §10, §11, §12, §13, §14, §15, §16, §17, §18, §19, §20, §21, §22, §23, §24, §25, §26, §27

[1] = tested on: phosphorylation of PI3K downstream protein Akt in MCF7 cells; test: In vitro test of cells activity: ELISA of Akt phosphorylation in MCF7 cells; format: cell-based; conditions: 2 h compound, insulin 10 μg/mL stimulation, pAkt ELISA, read-out: MCF7 Cell IC50
Protocol: 2. In vitro test of cells activity
By the method of ELISA, the inhibition level of the test compound on the phosphorylation of PI3K downstream protein Akt in the signaling pathway was determined in MCF7 cells line to reflect the cells activity of the compound.
Cell culture medium: complete cell culture medium (RPMI 1640+10% serum+1% L-glutamine+1% double antibody)
Serum-free medium (without serum, RPMI 1640+1% L-glutamine+1% double antibody)
The detailed procedures areas follows:
(1) MCF7 cells (ATCC® HTB-22™) were inoculated into a 96-well plate at 100 μL of cell complete medium per well (2.5*10^4 cells per well), and the cells were incubated at 37° C. and 5% CO2 for 24 hours.
(2) The complete cell culture medium was replaced with 100 μL of serum-free medium, and incubated for starvation overnight.
(3) The compound was prepared (The initial concentration of the compound is 1 mM, which was subjected to a three-fold dilution in 10 concentrations, and the compound of each concentration was then diluted 100-fold with serum-free medium). 25 μL of the diluted compound was added to the cells orifice plate.
(4) The cells were incubated at 37° C. and 5% CO2 for 2 hours.
(5) The cells in the well plate were stimulated with 10 μg/mL insulin (Sigma # I9278-5 mL), incubated for 30 minutes, and then centrifuged at 1000 rpm for 5 minutes at room temperature.
(6) 250 μL of 1× balanced salt solution (Invitrogen, #14065-056, 4° C., containing 1 mM/L Na3VO4) was added to each well to wash the cells once.
(7) 100 μL of lysis buffer (trimethylolaminomethane hydrochloride, Invitrogen, #15567-1000 ml) was added to each well, shaken at 4° C. for 60 minutes, and then centrifuged at 4000 rpm for 4 minutes.
(8) The following procedures were carried out according to the instructions of ELISA kit (TGR BioSciences # EKT002).

PI3Kβ = target: T3, PI3Kβ (Homo sapiens, UniProt P42338); test: In vitro test of enzyme activity (ADP-Glo lipokinase), PI3K beta; format: biochemical; conditions: 40 μM ATP, 50 μM PIP2:3PS, 120 min
T3 construct: purchased Promega V1751
T3 sequence (P42338 whole entry): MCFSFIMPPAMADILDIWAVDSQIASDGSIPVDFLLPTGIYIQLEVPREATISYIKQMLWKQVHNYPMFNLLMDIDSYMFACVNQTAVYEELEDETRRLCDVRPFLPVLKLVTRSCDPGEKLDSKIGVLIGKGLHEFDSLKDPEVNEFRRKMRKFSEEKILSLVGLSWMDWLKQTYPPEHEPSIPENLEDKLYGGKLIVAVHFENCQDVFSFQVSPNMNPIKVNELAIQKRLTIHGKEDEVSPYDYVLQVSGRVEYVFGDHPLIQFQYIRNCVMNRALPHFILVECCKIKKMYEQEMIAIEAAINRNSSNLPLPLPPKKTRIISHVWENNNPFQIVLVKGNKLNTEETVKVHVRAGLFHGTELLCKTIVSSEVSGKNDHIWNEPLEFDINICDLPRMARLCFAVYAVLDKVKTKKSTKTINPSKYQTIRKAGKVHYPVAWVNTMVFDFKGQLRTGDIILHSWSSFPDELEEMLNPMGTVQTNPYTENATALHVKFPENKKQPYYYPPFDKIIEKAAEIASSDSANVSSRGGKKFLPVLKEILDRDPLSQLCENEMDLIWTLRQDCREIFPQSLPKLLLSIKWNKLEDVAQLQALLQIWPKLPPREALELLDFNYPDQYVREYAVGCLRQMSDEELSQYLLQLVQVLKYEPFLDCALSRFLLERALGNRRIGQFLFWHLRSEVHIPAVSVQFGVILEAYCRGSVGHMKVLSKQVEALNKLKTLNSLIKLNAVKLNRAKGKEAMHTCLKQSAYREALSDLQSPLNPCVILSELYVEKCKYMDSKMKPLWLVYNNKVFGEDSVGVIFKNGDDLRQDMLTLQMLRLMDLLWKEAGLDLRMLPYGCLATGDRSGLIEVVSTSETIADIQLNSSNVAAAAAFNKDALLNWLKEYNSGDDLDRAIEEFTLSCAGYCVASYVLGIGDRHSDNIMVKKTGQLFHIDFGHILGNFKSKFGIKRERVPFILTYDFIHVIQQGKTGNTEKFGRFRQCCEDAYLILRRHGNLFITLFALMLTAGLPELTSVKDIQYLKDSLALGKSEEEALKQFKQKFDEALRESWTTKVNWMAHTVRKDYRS
T3 sequence (P27986 whole entry partner): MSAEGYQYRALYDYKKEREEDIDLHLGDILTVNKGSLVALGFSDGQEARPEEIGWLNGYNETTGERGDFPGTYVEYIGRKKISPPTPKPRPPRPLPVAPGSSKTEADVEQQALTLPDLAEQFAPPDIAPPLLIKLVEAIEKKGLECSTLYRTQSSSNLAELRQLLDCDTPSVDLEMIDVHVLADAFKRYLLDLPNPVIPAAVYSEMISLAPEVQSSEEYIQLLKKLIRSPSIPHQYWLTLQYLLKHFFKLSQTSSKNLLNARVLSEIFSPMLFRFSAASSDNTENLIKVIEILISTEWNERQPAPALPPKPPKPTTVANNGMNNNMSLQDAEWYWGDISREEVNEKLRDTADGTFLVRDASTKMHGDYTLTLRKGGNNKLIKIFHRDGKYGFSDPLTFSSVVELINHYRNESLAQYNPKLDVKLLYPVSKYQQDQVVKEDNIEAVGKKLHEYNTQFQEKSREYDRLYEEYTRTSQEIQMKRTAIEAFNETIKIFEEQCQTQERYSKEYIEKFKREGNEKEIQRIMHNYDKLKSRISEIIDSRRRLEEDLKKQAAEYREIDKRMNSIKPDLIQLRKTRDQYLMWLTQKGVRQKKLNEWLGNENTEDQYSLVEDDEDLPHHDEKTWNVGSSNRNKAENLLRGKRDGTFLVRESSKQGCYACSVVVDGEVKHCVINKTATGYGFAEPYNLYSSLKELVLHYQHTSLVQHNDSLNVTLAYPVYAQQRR
Protocol: as §1, §2, §3, §4, §5, §6, §7, §8, §9, §10, §11, §12, §13, §14, §15, §16, §17, §18, §19, §20, §21, §22, §23, §24, §25, §26, §27

PI3Kα = target: T4, PI3Kα (Homo sapiens, UniProt P42336); test: In vitro test of enzyme activity (ADP-Glo lipokinase), PI3K alpha; format: biochemical; conditions: 40 μM ATP, 50 μM PIP2:3PS, 120 min
T4 construct: purchased Millipore 14-602-K
T4 sequence (P42336 whole entry): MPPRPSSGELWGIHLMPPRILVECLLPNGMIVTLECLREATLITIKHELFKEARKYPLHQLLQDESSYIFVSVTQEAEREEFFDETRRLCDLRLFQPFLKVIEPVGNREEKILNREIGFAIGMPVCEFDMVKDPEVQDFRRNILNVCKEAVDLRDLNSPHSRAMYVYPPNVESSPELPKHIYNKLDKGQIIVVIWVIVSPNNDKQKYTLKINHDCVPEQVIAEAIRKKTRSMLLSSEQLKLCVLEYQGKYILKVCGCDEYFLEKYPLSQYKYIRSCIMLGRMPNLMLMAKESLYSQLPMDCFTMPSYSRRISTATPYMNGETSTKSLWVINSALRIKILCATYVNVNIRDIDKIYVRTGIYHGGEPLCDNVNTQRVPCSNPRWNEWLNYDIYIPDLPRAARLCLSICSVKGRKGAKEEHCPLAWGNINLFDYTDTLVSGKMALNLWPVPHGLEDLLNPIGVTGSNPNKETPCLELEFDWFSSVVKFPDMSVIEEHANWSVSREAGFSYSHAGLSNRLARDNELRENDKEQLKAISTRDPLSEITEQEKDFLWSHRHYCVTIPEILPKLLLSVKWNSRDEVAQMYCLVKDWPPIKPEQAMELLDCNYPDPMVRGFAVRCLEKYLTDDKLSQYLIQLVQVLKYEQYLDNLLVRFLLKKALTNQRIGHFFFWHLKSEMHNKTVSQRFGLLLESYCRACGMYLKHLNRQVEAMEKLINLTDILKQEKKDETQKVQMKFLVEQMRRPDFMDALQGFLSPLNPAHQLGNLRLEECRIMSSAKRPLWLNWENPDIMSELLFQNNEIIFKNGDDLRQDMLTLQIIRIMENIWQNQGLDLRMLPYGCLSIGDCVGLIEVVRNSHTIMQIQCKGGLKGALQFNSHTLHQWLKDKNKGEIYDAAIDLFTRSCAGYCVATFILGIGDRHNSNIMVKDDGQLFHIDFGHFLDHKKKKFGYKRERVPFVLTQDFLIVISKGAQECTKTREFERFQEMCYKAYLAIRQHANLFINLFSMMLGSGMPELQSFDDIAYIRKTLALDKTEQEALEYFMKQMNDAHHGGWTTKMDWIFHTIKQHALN
T4 sequence (P27986 whole entry partner): as the sequence (P27986 whole entry partner) above
Protocol: as §1, §2, §3, §4, §5, §6, §7, §8, §9, §10, §11, §12, §13, §14, §15, §16, §17, §18, §19, §20, §21, §22, §23, §24, §25, §26, §27

[2] = In vivo DMPK study in mice after a single administration; parameters: species or system female Balb/c mice; conditions: for Cmax / Oral DNAUC (area under the dose normalization curve): oral
Protocol: Experimental objective: female Balb/c mice were used as the test animals, and the blood concentration of the compound was determined and the pharmacokinetic behavior was evaluated after a single administration.
Experimental operation: 12 healthy adult female Balb/c mice were selected, 6 for intravenous injection group and 6 for oral administration group. The compound to be tested was mixed with an appropriate amount of intravenous injection group vehicle (10% HP-betaCD: 10% solutol=1:1, pH=8), vortex-mixed and sonicated to prepare a 1.0 mg/mL clear solution, followed by filtration for subsequent use; the vehicle in the oral group was 0.5% MC/0.2% Tw80. After the test compound and the vehicle were mixed, it was vortex-mixed and sonicated to prepare a 1.0 mg/mL homogeneous suspension for subsequent use. After an intravenous administration at a dose of 1 mg/kg or an oral administration at the dose of 2 mg/kg and 10 mg/kg, whole blood of the mice was collected for a certain period of time to prepare plasma. The drug concentration was analyzed by LC-MS/MS method, and Phoenix WinNonlin software was used (Pharsight, USA) to calculate the pharmacokinetic parameters.
Cmax: the highest concentration of the drug in the body; F %: oral bioavailability; Oral DNAUC: area under the dose normalization curve; Vd: apparent volume of distribution; Cl: clearance rate; T1/2: half-life.

T1 sequence (O00329 whole entry): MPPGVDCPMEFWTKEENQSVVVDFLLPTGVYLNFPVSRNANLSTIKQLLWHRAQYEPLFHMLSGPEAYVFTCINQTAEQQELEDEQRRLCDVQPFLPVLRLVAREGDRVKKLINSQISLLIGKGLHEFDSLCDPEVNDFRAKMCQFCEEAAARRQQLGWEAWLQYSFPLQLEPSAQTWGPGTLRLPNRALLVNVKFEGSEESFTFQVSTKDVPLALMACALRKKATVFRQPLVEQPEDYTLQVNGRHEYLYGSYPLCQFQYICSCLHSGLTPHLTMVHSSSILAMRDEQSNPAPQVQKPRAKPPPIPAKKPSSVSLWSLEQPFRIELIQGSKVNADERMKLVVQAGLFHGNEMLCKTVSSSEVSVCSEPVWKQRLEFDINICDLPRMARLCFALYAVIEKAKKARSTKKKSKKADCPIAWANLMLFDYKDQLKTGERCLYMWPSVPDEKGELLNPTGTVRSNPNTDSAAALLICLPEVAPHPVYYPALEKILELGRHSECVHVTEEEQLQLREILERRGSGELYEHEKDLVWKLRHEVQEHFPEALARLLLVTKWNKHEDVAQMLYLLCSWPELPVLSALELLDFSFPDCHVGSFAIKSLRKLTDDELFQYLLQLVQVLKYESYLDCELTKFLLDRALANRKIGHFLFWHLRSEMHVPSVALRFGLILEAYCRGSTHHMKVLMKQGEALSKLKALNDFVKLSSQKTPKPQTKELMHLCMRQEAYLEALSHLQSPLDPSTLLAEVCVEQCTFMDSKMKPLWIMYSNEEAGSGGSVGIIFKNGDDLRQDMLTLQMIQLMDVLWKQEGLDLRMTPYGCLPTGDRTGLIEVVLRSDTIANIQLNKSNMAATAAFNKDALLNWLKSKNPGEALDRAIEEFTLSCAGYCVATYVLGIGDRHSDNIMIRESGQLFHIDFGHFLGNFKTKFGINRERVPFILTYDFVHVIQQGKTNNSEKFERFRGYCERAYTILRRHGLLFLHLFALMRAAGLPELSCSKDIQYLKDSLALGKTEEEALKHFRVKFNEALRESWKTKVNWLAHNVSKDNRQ
T1 sequence (P27986 whole entry partner): as the sequence (P27986 whole entry partner) above

Work on `COc1ncc(-c2ccc3ncn(CC(C)C(N)=O)c(=O)c3c2)cc1NS(=O)(=O)c1sc(C)nc1C` (single isomer, unassigned) [WX024] yielded an IC50 (PI3Kδ) of 0.47 nM, an IC50 (PI3Kγ) of 2.03 nM and an IC50 [1] of 71.5 nM. For the same compound, the IC50 (PI3Kβ) was 19.9 nM and the IC50 (PI3Kα) was 0.29 nM.

`COc1ncc(-c2ccc3ncn(CC(C)C(N)=O)c(=O)c3c2)cc1NS(=O)(=O)c1sc(C)nc1C` (single isomer, unassigned) [WX025] gave an IC50 (PI3Kδ) of 0.47 nM, an IC50 (PI3Kγ) of 1 nM and an IC50 [1] of 23.9 nM. For the same compound, the IC50 (PI3Kβ) was 13.2 nM and the IC50 (PI3Kα) was 0.41 nM.

For `COCCNC(=O)C(C)Cn1cnc2ccc(-c3cnc(OC)c(NS(=O)(=O)c4ccc(F)cc4Cl)c3)cc2c1=O` (single isomer, unassigned) [WX065], the IC50 (PI3Kδ) was 29.7 nM, the IC50 (PI3Kγ) was 45.2 nM and the IC50 [1] was 72 nM. The IC50 (PI3Kβ) was 1120 nM and the IC50 (PI3Kα) was 4.9 nM.

`COc1ncc(-c2ccc3ncn(CC(C)C(=O)NCCF)c(=O)c3c2)cc1NS(=O)(=O)c1ccc(F)cc1Cl` (single isomer, unassigned) [WX067] gave an IC50 (PI3Kδ) of 18.8 nM, an IC50 (PI3Kγ) of 18.3 nM and a Cmax ([2]; 2 mpk) of 3.39 µM. The “Oral DNAUC (area under the dose normalization curve)” value ([2]; 2 mpk) was 1047 nM · h/mpk, the IC50 [1] was 67.4 nM and the IC50 (PI3Kβ) was 399 nM. It also gave an IC50 (PI3Kα) of 2.47 nM.

Work on `CNC(=O)C(C)Cn1cnc2ccc(-c3cnc(OC)c(NS(=O)(=O)c4ccc(F)cc4)c3)cc2c1=O` (single isomer, unassigned) [WX087] yielded an IC50 (PI3Kδ) of 30.7 nM, an IC50 (PI3Kγ) of 41.3 nM and a Cmax ([2]; 10 mpk) of 5 µM. For the same compound, the “Oral DNAUC (area under the dose normalization curve)” value ([2]; 10 mpk) was 1372 nM · h/mpk, the IC50 [1] was 19 nM and the IC50 (PI3Kβ) was 355 nM. The IC50 (PI3Kα) was 3.35 nM.

Compound `CNC(=O)C(C)Cn1cnc2ccc(-c3cnc(OC)c(NS(=O)(=O)c4ccc(C)cc4C)c3)cc2c1=O` (single isomer, unassigned) [WX091] has an IC50 (PI3Kδ) of 26.2 nM, an IC50 (PI3Kγ) of 97.3 nM and an IC50 [1] of 5.7 nM. The IC50 (PI3Kβ) was 537 nM and the IC50 (PI3Kα) was 5.11 nM.

With `CNC(=O)C(C)Cn1cnc2ccc(-c3cnc(OC)c(NS(=O)(=O)c4cc(C(F)(F)F)cc(C(F)(F)F)c4)c3)cc2c1=O` (single isomer, unassigned) [WX103] the IC50 (PI3Kδ) was 403 nM, the IC50 (PI3Kγ) was 360 nM and the “Cl (clearance rate)” value ([2]; intravenous 1 mg/kg) was 1.29 mL/min/kg. The “Intravenous injection T1/2” value ([2]; intravenous 1 mg/kg) was 3.55 h, the “Vd (apparent volume of distribution)” value ([2]; intravenous 1 mg/kg) was 0.324 L/kg and the “F % (oral bioavailability)” value ([2]; oral 10 mpk vs intravenous 1 mg/kg) was 58.4%. The Cmax ([2]; 10 mpk) was 18.3 µM, the “Oral DNAUC (area under the dose normalization curve)” value ([2]; 10 mpk) was 12262 nM · h/mpk and the IC50 [1] was 13.4 nM. For the same compound, the IC50 (PI3Kβ) was 2280 nM and the IC50 (PI3Kα) was 20.8 nM.

`CNC(=O)C(C)Cn1cnc2c(F)cc(-c3cnc(OC)c(NS(=O)(=O)c4ccc(F)cc4Cl)c3)cc2c1=O` (single isomer, unassigned) [WX105] showed an IC50 (PI3Kδ) of 41.1 nM, an IC50 (PI3Kγ) of 29.2 nM and an IC50 [1] of 193 nM. It also gave an IC50 (PI3Kβ) of 1150 nM and an IC50 (PI3Kα) of 10.5 nM.
